# Laboratory results: paper PMC12715762, “Discovery of VU6052254: A Novel, Potent M1 Positive Allosteric Modulator” (ACS Chemical Neuroscience, 2025)
# Entries after “also recorded” stand apart in the source; their conditions may differ.
# Assays:
# [1] = target: Transporter, Dopamine (DAT) (Homo sapiens, UniProt Q01959); experiment: Eurofins radioligand binding
# [2] = test system: 1A2; experiment: CYP450 induction in human hepatocytes (three donors); type: cell-based; conditions: 10 μM, human hepatocytes from three donors
# [3] = target: Adenosine A1 (Homo sapiens, UniProt P30542); experiment: Eurofins radioligand binding
# [4] = target: Endothelin ETA (Homo sapiens, UniProt P25101); experiment: Eurofins radioligand binding
# [5] = target: Adrenergic β1 (Homo sapiens, UniProt P08588); experiment: Eurofins radioligand binding
# [6] = target: Histamine H1 (Homo sapiens, UniProt P35367); experiment: Eurofins radioligand binding
# [7] = target: Neuropeptide Y Y2 (Homo sapiens, UniProt P49146); experiment: Eurofins radioligand binding
# [8] = test system: 3A4; experiment: CYP induction repeated at a different CRO (mRNA and protein); type: cell-based; conditions: result in words
# [9] = target: Adrenergic β2 (Homo sapiens, UniProt P07550); experiment: Eurofins radioligand binding
# [10] = target: CYP 2C8 (Homo sapiens, UniProt P10632); experiment: CYP450 inhibition; type: in vitro ADME
# [11] = IV/PO pharmacokinetics (rat); type: in vivo; conditions: Rat (SD)
# [12] = target: Nicotinic Acetylcholine α3β4 (Homo sapiens, UniProt P30926+P32297); experiment: Eurofins radioligand binding
# [13] = test system: 3A4; experiment: CYP450 induction in human hepatocytes (three donors); type: cell-based
# [14] = target: Bradykinin B2 (Homo sapiens, UniProt P30411); experiment: Eurofins radioligand binding
# [15] = target: Bradykinin B1 (Homo sapiens, UniProt P46663); experiment: Eurofins radioligand binding
# [16] = target: Dopamine D2S (Homo sapiens, UniProt P14416); experiment: Eurofins radioligand binding
# [17] = target: Muscarinic M2 (Homo sapiens, UniProt P08172); experiment: Eurofins radioligand binding
# [18] = test system: Sprague-Dawley rats; experiment: contextual fear conditioning (CFC); type: in vivo, rat
# Method: Contextual Fear Conditioning
# Contextual Fear Conditioning. Studies were conducted using conditioning chambers in sound attenuating cubicles equipped with a stainless steel grid floor for shock delivery and a video camera for recording freezing behavior (Med Associates, Fairfax, Vermont). Rats were acclimated to the apparatus for 3 days (10 minutes each day) prior to conditioning. On the training (conditioning) day, rats were pretreated by oral gavage with Vehicle (10% Tween 80) or Compound X […]
# conditioning chamber that contained 1 mL 10% vanilla extract as odor cue.2 After a 180-sec
# [19] = plasma protein binding, equilibrium dialysis (human); type: in vitro ADME; conditions: pH 7.4, read-out: fu,plasma
# Method: Plasma protein binding and Brain homogenate binding: Determination of fraction unbound (f u) in plasma was conducted in vitro via equilibrium dialysis using HTDialysis (HTD) membrane plates. The top half of the plate was filled with 100 uL of Dubelco’s Phosphate Buffered Saline, pH 7.4 (DPBS). Compounds were diluted into plasma from each species (5 µM final concentration), which was aliquoted in triplicate to the ‘bottom half’ of the prepared HTD plate wells. The HTD plate was sealed and incubated for 6 hours at 37 °C. Following incubation, each well (both top and bottom halves) were transferred (20 µL) to the corresponding wells of a 96-shallow-well (V-bottom) plate. […]
# The unbound fraction (f u) was calculated following the equation below, and mean values for each species were calculated from 3 replicates.
# A similar approach was used to determine the degree of brain homogenate binding, which employed the same methodology and procedure with the following modifications: 1) a final compound concentration of 1 μM was used, 2) naïve rat brains were homogenized in DPBS (1:3 composition of brain: DPBS, w/w) using a Mini-Bead Beater™ machine in order to obtain brain homogenate, which was then treated in the same manner as the plasma samples in the previously described plasma protein binding assay. Fraction unbound for both plasma and brain samples was determined using Equation 4. […]
# [20] = satellite IP PK study, brain exposure; type: in vivo; conditions: C57Bl6 mice, 30% captisol
# From the text: These effects were absent when performed in M1 KO mice, confirming that these AEs are in fact M1-mediated. […] Total brain drug levels correlate better with PD efficacy ,− , versus free drug levels in brain, as the arbitrarily selected EC20 value for the in vitro PAM EC50 potency determination likely underestimates endogenous ACh tone. Thus, there is a significant therapeutic index for PAM 7 from this assay, and robust target-mediated convulsions were not present. To assess peripheral cholinergic toxicity, a modified Irwin neurological battery was performed to score autonomic or somatosensory side effects (Figure ). […] Still, if the dose and exposure required for efficacy afforded the appropriate therapeutic window, then PAM 7 could still advance.
# [21] = target: Opiate κ (OP2, KOP) (Homo sapiens, UniProt P41145); experiment: Eurofins radioligand binding
# [22] = test system: Purinergic P2Y, Non-Selective; experiment: Eurofins radioligand binding; conditions: Rat
# [23] = target: Serotonin (5-HT2B) (Homo sapiens, UniProt P41595); experiment: Eurofins radioligand binding
# [24] = target: Serotonin (5-HT3) (Homo sapiens, UniProt P46098); experiment: Eurofins radioligand binding
# [25] = test system: CV ion channels; experiment: CV ion channel EP panel; type: cell-based; conditions: result in words
# Chain of Bradykinin B1 (P46663 whole entry): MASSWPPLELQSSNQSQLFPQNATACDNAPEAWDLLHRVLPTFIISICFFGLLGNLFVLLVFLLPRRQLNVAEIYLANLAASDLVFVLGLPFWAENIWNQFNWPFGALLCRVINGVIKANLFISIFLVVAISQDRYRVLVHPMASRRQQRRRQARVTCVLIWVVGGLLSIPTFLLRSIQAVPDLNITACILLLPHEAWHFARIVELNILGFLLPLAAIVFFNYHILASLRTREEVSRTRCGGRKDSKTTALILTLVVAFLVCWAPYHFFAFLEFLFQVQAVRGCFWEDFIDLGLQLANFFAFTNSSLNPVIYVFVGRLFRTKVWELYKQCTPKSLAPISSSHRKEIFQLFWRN
# Chain of Transporter, Dopamine (DAT) (Q01959 whole entry): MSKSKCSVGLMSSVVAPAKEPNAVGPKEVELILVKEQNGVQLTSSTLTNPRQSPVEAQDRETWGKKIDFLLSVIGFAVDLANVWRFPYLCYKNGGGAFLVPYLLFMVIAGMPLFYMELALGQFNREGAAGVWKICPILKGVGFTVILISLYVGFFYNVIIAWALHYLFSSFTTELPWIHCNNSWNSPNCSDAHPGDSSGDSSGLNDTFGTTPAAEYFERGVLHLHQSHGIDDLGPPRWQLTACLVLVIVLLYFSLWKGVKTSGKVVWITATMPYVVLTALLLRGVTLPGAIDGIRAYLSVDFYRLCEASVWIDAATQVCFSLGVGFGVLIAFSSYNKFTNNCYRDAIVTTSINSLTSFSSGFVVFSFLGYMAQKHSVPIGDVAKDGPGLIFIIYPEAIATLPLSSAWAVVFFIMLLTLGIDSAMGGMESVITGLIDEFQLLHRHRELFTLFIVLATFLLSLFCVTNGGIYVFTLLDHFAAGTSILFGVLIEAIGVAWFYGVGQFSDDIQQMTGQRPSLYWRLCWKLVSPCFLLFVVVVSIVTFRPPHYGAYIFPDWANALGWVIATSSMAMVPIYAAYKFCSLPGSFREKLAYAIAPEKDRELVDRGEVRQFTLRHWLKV
# Chain of Adenosine A1 (P30542 whole entry): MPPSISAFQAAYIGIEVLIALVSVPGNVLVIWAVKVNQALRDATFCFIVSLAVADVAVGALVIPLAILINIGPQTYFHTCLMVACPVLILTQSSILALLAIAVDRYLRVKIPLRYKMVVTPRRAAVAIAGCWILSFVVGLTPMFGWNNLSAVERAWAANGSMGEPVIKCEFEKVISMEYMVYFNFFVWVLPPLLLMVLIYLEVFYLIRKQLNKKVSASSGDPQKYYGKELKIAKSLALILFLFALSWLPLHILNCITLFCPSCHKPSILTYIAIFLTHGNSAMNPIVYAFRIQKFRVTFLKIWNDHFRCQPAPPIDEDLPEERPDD
# Chain of Adrenergic β2 (P07550 whole entry): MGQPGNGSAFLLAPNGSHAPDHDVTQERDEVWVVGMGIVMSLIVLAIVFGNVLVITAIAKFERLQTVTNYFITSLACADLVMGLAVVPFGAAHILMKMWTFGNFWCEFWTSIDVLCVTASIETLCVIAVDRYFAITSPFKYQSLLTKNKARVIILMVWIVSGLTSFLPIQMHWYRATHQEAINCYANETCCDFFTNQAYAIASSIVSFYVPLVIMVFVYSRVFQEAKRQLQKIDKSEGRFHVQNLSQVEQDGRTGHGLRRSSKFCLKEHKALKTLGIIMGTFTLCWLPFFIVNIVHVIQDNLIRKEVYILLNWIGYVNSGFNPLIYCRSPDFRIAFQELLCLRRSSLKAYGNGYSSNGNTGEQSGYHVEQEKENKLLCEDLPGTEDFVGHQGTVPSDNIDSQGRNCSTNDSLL
# Chain of Neuropeptide Y Y2 (P49146 whole entry): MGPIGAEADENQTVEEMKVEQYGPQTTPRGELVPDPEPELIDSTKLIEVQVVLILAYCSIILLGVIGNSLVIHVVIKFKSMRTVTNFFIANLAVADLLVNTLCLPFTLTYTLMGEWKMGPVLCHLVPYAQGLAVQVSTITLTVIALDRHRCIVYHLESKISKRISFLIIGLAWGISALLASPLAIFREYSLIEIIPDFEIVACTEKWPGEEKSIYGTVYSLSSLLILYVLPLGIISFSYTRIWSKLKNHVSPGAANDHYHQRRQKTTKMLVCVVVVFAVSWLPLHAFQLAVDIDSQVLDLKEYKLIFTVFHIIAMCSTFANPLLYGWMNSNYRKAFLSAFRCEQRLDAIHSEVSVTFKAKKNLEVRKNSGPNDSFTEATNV
# Chain of Opiate κ (OP2, KOP) (P41145 whole entry): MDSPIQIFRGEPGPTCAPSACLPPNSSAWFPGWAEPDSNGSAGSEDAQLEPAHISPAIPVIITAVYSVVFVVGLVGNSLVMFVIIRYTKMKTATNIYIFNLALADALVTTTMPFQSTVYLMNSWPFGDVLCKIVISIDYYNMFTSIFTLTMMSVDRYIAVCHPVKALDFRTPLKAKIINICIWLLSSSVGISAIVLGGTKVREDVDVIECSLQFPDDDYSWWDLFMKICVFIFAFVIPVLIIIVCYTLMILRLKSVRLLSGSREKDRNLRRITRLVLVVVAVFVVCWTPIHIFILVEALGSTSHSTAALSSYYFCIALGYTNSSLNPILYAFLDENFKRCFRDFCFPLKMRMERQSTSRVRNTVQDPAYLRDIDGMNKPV
# Chain of CYP 2C8 (P10632 whole entry): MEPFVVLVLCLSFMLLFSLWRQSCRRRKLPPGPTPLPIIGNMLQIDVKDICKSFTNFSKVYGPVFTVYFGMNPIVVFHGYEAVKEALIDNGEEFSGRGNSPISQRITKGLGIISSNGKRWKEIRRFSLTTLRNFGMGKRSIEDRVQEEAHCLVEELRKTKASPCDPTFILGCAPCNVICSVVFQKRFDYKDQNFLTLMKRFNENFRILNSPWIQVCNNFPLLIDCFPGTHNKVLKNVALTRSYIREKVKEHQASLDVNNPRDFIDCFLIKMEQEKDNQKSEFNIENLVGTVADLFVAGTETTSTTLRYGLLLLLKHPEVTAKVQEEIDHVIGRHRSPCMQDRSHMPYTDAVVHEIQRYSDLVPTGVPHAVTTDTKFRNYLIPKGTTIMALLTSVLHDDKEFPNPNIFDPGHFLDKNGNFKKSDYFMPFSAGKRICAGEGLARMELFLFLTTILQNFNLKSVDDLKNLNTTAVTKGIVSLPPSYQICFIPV
# Chain of Dopamine D2S (P14416 1-414 isoform P14416-2): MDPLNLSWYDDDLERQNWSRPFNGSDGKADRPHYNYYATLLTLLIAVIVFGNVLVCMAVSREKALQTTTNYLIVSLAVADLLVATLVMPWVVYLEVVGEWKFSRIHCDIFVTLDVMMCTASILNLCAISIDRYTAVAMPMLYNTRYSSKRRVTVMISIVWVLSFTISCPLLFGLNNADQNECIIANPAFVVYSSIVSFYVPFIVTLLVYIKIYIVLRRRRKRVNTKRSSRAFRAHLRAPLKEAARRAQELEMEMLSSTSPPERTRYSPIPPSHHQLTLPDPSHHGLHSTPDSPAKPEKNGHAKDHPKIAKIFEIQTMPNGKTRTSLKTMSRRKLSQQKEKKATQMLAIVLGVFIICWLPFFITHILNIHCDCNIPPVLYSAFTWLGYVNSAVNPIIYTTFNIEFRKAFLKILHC
# Chain of Serotonin (5-HT3) (P46098 24-478): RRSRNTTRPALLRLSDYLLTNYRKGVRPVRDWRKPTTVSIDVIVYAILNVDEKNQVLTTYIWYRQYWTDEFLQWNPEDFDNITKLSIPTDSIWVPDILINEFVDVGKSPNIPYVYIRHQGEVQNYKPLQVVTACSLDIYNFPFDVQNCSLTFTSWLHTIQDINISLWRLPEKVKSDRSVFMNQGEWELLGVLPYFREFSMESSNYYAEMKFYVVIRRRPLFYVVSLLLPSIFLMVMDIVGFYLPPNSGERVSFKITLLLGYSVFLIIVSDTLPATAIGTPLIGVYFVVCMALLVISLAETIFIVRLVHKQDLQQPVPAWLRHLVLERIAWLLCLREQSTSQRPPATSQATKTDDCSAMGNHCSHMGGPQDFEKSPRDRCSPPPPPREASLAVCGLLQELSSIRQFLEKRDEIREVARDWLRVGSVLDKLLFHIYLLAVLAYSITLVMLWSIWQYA
# Chain of Nicotinic Acetylcholine α3β4 (P32297 32-505): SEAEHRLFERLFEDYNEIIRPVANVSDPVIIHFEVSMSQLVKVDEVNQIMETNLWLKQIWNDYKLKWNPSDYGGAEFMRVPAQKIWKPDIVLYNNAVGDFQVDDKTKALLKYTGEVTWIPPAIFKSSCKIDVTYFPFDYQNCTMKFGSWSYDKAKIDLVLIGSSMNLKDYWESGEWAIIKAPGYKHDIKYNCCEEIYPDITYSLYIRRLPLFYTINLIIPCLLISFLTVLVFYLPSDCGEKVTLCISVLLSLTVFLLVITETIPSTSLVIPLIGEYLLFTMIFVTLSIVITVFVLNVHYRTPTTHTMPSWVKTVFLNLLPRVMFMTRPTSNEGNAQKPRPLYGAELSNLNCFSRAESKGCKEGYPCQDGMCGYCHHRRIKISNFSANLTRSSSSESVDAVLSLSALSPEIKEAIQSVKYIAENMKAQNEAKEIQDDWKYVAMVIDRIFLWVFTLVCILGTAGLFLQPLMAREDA
# Chain of Nicotinic Acetylcholine α3β4 (P30926 22-498): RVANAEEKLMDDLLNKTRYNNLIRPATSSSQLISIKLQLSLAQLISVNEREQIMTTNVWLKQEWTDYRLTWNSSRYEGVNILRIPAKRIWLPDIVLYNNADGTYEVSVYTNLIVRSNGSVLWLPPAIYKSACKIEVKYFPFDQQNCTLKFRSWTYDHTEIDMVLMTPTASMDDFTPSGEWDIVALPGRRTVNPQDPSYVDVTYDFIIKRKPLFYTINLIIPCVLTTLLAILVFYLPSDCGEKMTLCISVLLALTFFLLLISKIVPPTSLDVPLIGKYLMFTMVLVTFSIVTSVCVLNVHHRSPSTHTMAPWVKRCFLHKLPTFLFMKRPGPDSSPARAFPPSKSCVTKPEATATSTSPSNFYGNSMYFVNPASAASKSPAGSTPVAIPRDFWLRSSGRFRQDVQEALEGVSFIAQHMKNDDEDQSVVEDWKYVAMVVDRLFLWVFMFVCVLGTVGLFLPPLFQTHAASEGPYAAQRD
compound,measurement,setting,value
Cn1cc2c(-c3cc(F)c(CN4Cc5ncccc5C4=O)c(F)c3)ccc(C(C)(C)O)c2n1 [compound 7],inhibition at 10 µM,[1],7%
same,1A2 induction,[2],4.9%
same,inhibition at 10 µM,[3],-2%
same,inhibition at 10 µM,[4],11%
same,inhibition at 10 µM,[5],5%
same,inhibition at 10 µM,[6],4%
same,inhibition at 10 µM,[7],-9%
same,"3A4 induction, mRNA and protein",[8],not to be an inducer of 3A4
same,inhibition at 10 µM,[9],-4%
same,IC50,[10],> 30 µM
same,F (%) po,"[11]; 10 mg/kg po, 10 mg/kg",>100%
same,clearance,"[11]; Sprague-Dawley, plasma, 1 mg/kg iv, read-out: CLp",5.8 mL/min/kg
same,half-life,"[11]; Sprague-Dawley, plasma, 1 mg/kg iv, read-out: Elimination t1/2 (converted)",3.7 h
same,Vd,"[11]; Sprague-Dawley, plasma, 1 mg/kg iv, read-out: Vss",1.3 L/kg
same,AUC,"[11]; Sprague-Dawley, plasma, 10 mg/kg po",110 µM·h
same,Cmax,"[11]; plasma, 10 mg/kg po",15.9 µM
same,Tmax,"[11]; plasma, 10 mg/kg po",1 h
same,inhibition at 10 µM,[12],4%
same,3A4 induction,"[13]; 10 μM, human hepatocytes from three donors",7.6%
same,3A4 induction,"[13]; 30 μM, mRNA as the reporter",30.5%
same,inhibition at 10 µM,[14],-18%
same,inhibition at 10 µM,[15],0%
same,inhibition at 10 µM,[16],-2%
same,inhibition at 10 µM,[17],3%
same,total brain concentration at CFC MED,"[18]; 0.3 mg/kg PO, rat",58 nM
same,effect on acquisition of CFC,"[18]; 0.03-3 mg/kg PO, result in words",robust dose-dependent enhancement in the acquisition of contextual fear conditioning; also recorded: dose-dependently enhanced the acquisition of CFC
same,minimum effective dose (MED) in rat CFC,"[18]; PO, 10% Tween 80 in water, male Sprague-Dawley rats",0.3 mg/kg
same,"fraction unbound at 6 h, 5 µM",[19],0.037
same,total brain exposure,[20]; 56.6 mg/kg IP,29.8 µM
same,total brain exposure,[20]; 100 mg/kg IP,42.2 µM
same,inhibition at 10 µM,[21],15%
same,% Inhibition at 10 µM,[22],21%
same,inhibition at 10 µM,[23],20%
same,inhibition at 10 µM,[24],-14%
same,activity in CV ion channel EP panel,[25],no significant activities
